In paper PMC4468608, “A distinct p53 target gene set predicts for response to the selective p53–HDM2 inhibitor NVP-CGM097” (eLife, 2015):
Read-outs that look alike come from different tables or passages of the source.

Test system: cell lines from the Cancer Cell Line Encyclopedia (CCLE)
Experiment: High-throughput cell viability assay, CCLE cell line panel (n = 356)
Type: cell-based, human
Details: Homo sapiens
Description: Cell lines were partitioned into sensitive and insensitive groups based on compound potency (IC50). […] All other cell lines were obtained from ATCC (American Type Culture Collection), DSMZ (Deutsche Sammlung von Mikroorganismen und Zellkulturen), and HSRRB (Health Science Research Resources Bank) and cultured in RPMI or Dulbecco's modified Eagle's medium plus 10% FBS (Invitrogen, Carlsbad, CA) at 37°C, 5% CO2.

COc1cc2c(cc1OC(C)C)[C@H](c1ccc(Cl)cc1)N(c1ccc(N(C)C[C@H]3CC[C@H](N4CCNC(=O)C4)CC3)cc1)C(=O)C2 [NVP-CFC218]
IC50 (HCC-56, TP53 MUT): > 8 µM | IC50 (HCT 116 TP53(-/-), HCT 116, TP53 WT): 3.38 µM | IC50 (HCT-15, HCT-15, TP53 MUT): > 8 µM | IC50 (HD-MY-Z, TP53 MUT): > 8 µM | IC50 (HEC-50B, TP53 MUT): > 8 µM | IC50 (HEC-59, TP53 MUT): > 8 µM | IC50 (HEC-151, TP53 MUT): 7.91 µM | IC50 (HEL 92.1.7, HEL 92.1.7, TP53 MUT): > 8 µM | IC50 (HEY A8, Hey-A8, TP53 WT): 3.12 µM | IC50 (HGC-27, HGC-27, TP53 MUT): 7.41 µM | IC50 (HH, TP53 MUT): > 8 µM | IC50 (HLF, TP53 MUT): > 8 µM | IC50 (HMC-1-8, TP53 MUT): > 8 µM | IC50 (HPBALL, HPB-ALL, TP53 MUT): > 8 µM | IC50 (HSC-2, read-out: NVP- CFC218 IC50 (µM), cell line HSC-2, upper_aerodigestive_tract, TP53 MUT): > 8 µM | IC50 (HSC-3, HSC-3, TP53 MUT): > 8 µM | IC50 (HSC-4, HSC-4, TP53 MUT): > 8 µM | IC50 (HT-29, HT-29, TP53 MUT): > 8 µM | IC50 (HT-144, HT-144, TP53 WT): 3.86 µM | IC50 (HepG2, Hep G2, TP53 WT): 1.95 µM | IC50 (Hs 294T, TP53 MUT): 3.61 µM | IC50 (Hs 683, Hs 683, TP53 MUT): > 8 µM | IC50 (Hs 695T, TP53 WT): 3.65 µM | IC50 (Hs 729, TP53 MUT): > 8 µM | IC50 (Hs746T, Hs 746T, TP53 MUT): > 8 µM | IC50 (Hs766T, Hs 766T, TP53 MUT): > 8 µM | IC50 (Hs 936.T, TP53 WT): 6.44 µM | IC50 (Hs-578T, Hs 578T, TP53 MUT): > 8 µM | IC50 (HuCCT-1, HuCCT1, TP53 MUT): > 8 µM | IC50 (HuT78, HuT 78, TP53 MUT): > 8 µM | IC50 (Huh-7, HuH-7, TP53 MUT): > 8 µM | IC50 (IA-LM, TP53 MUT): > 8 µM | IC50 (IGR-39, IGR-39, TP53 MUT): > 8 µM | IC50 (IGROV-1, IGROV1, TP53 MUT): > 8 µM | IC50 (IM95, read-out: NVP- CFC218 IC50 (µM), cell line IM95, stomach, TP53 WT): > 8 µM | IC50 (IPC-298, IPC-298, TP53 MUT): > 8 µM | IC50 (IST-MES2, TP53 MUT): > 8 µM | IC50 (J82, TP53 MUT): > 8 µM | IC50 (JHH7, JHH-7, TP53 MUT): > 8 µM | IC50 (JHH-4, JHH-4, TP53 MUT): > 8 µM | IC50 (JHUEM-2, TP53 WT): 1.73 µM | IC50 (JMSU-1, JMSU-1, TP53 MUT): > 8 µM | IC50 (JVM-3, JVM-3, TP53 WT): 3.64 µM | IC50 (K029AX, TP53 WT): 3.61 µM | IC50 (KARPAS-299, KARPAS-299, TP53 MUT): > 8 µM | IC50 (KATO III, TP53 MUT): > 8 µM | IC50 (KCL-22, KCL-22, TP53 MUT): > 8 µM | IC50 (KE-39, TP53 MUT): > 8 µM | IC50 (KE-97, KE-97, TP53 WT): 1.38 µM | IC50 (KMBC-2, TP53 MUT): 3.55 µM | IC50 (KMM-1, KMM-1, TP53 MUT): > 8 µM | IC50 (KMRC-1, read-out: NVP- CFC218 IC50 (µM), cell line KMRC-1, kidney, TP53 WT): > 8 µM | IC50 (KMS-11, KMS-11, TP53 WT): > 8 µM | IC50 (KMS-26, KMS-26, TP53 MUT): > 8 µM | IC50 (KMS-27, read-out: NVP- CFC218 IC50 (µM), cell line KMS-27, haem._and_lymphoid_tissue, TP53 WT): > 8 µM | IC50 (KMS-28BM, read-out: NVP- CFC218 IC50 (µM), cell line KMS-28BM, haem._and_lymphoid_tissue, TP53 WT): > 8 µM | IC50 (KNS-42, read-out: NVP- CFC218 IC50 (µM), cell line KNS-42, central_nervous_system, TP53 MUT): > 8 µM | IC50 (KNS-60, TP53 MUT): > 8 µM | IC50 (KNS-62, KNS-62, TP53 MUT): > 8 µM | IC50 (KO52, TP53 MUT): > 8 µM | IC50 (KP4, TP53 WT): > 8 µM | IC50 (KP-2, TP53 MUT): > 8 µM | IC50 (KP-3, TP53 MUT): > 8 µM | IC50 (KP-N-SI9s, TP53 WT): 1.2 µM | IC50 (KS-1, TP53 WT): 2.2 µM | IC50 (KU812, KU812, TP53 MUT): > 8 µM | IC50 (KU-19-19, KU-19-19, TP53 WT): 6.89 µM | IC50 (KYM-1, TP53 WT): 2.95 µM | IC50 (KYSE-30, KYSE-30, TP53 MUT): > 8 µM | IC50 (KYSE-70, KYSE-70, TP53 MUT): > 8 µM | IC50 (KYSE-140, KYSE-140, TP53 MUT): > 8 µM | IC50 (KYSE-180, KYSE-180, TP53 MUT): > 8 µM | IC50 (KYSE-410, read-out: NVP- CFC218 IC50 (µM), cell line KYSE-410, oesophagus, TP53 MUT): > 8 µM | IC50 (KYSE-450, read-out: NVP- CFC218 IC50 (µM), cell line KYSE-450, oesophagus, TP53 MUT): > 8 µM | IC50 (KYSE-510, read-out: NVP- CFC218 IC50 (µM), cell line KYSE-510, oesophagus, TP53 MUT): > 8 µM | IC50 (KYSE-520, read-out: NVP- CFC218 IC50 (µM), cell line KYSE-520, oesophagus, TP53 MUT): > 8 µM | IC50 (L3.3, TP53 WT): > 8 µM | IC50 (L-363, L-363, TP53 MUT): > 8 µM | IC50 (L-428, read-out: NVP- CFC218 IC50 (µM), cell line L-428, haem._and_lymphoid_tissue, TP53 MUT): > 8 µM | IC50 (LC-1/sq-SF, TP53 MUT): > 8 µM | IC50 (LCLC-103H, TP53 MUT): > 8 µM | IC50 (LK-2, TP53 MUT): > 8 µM | IC50 (LN-18, LN-18, TP53 MUT): > 8 µM | IC50 (LN-229, read-out: NVP- CFC218 IC50 (µM), cell line LN-229, central_nervous_system, TP53 WT): > 8 µM | IC50 (LOU-NH91, LOU-NH91, TP53 MUT): > 8 µM
